This passage reports NO liberated experimentally results from patent publication US20110250134A1, “SUSTAINED RELEASE NITRIC OXIDE FROM LONG LIVED CIRCULATING NANOPARTICLES” (priority 2010, published 2011).

This data set can be described thus: Total NO released (NO agents decomposition). In kind it is physicochemical. Here is the method:
Total NO released (NO agents decomposition). Gaseous NO levels were measured using a chemiluminescent NO analyzer (Sievers NO analyzer, Model 280i, Boulder, Colo.). […] Solutions were continuously bubbled with pure nitrogen (0.2 L/min). The gas phase was collected into the NO analyzer for a minute every 10 min., and the excess flow was evacuated through an underwater seal (1 cm H2O).

As for `NCCN(CCN)/[N+]([O-])=N/O` [DETA NONOate, Diethylenetriamine NONOate], the NO liberated experimentally is given as 10.7 μmols of NO/mg.
As for `NCCCN(CCCN)/[N+]([O-])=N/O` [DPTA NONOate, Dipropylenetriamine NONOate], the NO liberated experimentally was 9.4 µmol/mg.
